{"source": "patent US4632922A", "about": "“Oxomorpholinyl dimer and rescue of anthracycline and mitomycin C damage” (The United States of America as represented by the …, priority 1985, dated 1986)", "key": {"[1]": {"assay": "Stability of DHM3 in water upon exposure to air", "type": "physicochemical", "method": "Oxazinone 2 (6.0 g, 0.019 mol) was dissolved in 500 ml of 2-propanol (Fisher). The solution was irradiated with a 450 W mercury immersion lamp through a Pyrex filter. Throughout the reacion the photochemical apparatus was immersed in a bath kept at 0° C. and nitrogen was bubbled through the solution. The disappearance of the oxazinone chromophore was monitored by UV spectroscopy. After 24 h, when the UV maximum at 323 nm had disappeared, the irradiation was stopped, and the solvent quickly rotary evaporated without delay at ambient temperature (20°-28° C.) first at 15-20 Torr, then at 1 Torr. The residue was dissolved in 70 ml of chloroform and the solution was stored in a freezer at about -18° C. for 6 days. The resulting pricipitate was collected by suction filtration, washed thoroughly with cold chloroform (≈10° C.) and dried under vaccuum to give 2.9 g (48%) of a white powder, mp 121°-124° C. An additional crop of crystals (0.64 g) was obtained from the mother liquors after two more weeks in the freezer. […] Minor peaks in the spectrum were present in areas compatible with the presence of other stereoisomers. Infrared and analytical data are as follows: IR (KBr) 3160, 2900, 1715, 1455, 1285, 1220, 1040, 770, 715 cm^-1; anal. calcd. for C14 H24 N2 O6 : C, 53.15; H, 7.65; N, 8.85. Found: C, 53.00; H, 7.70; N, 8.84. […]"}, "swine skin": {"test_system": "swine skin", "assay": "Intradermal DHM3 alone (control injections), tolerance and histology in swine", "type": "in vivo, miniature white swine", "method": "In order to produce anthracycline induced tissue damage, clinical grade doxorubicin (DOX) hydrochloride was obtained as a representative anthracycline chemical from the Drug Synthesis Branch, Developmental Therapeutics Program, National Cancer Institute. Each vial contained 10 mg DOX hydrochloride and 50 mg lactose which was reconstituted with 5.0 ml sterile 0.9% NaCl solution to give a final drug concentration of 2.0 mg/ml. DHM3 solution was prepared by dissolving 10 mg in ice-cold water which had been purged with N2 gas for 5 minutes. Dissolution was facilitated by brief sonication to give a final concentration of 10 mg/ml. The solution was kept cold (≈4° C.) and protected from air and light.\nFemale weanling miniature white swine weighing approximately 12 kg were obtained from the Veterinary Resources Branch, National Institutes of Health. The development of this strain of swine has been described previously (Sachs, et al., Transplantation 22:559-567, 1976). Each animal was housed in a 6×4 ft metabolic cage and was fed standard NIH show chow, 1.5 lbs twice daily.\nDOX HCl (2.0 mg/ml) was administered intradermally (i.d.) with a 25 gauge needle inserted approximately 4 to 5 mm into the skin. Following the injection of 0.5, 0.75 or 1.0 ml (1.0, 1.5, or 2.0 mg, respectively) DOX solution, the syringe was removed from the hub leaving the needle in place. After the indicated time interval, 1.0 ml (10 mg) DHM3 was injected through the same needle and the needle was then removed. Control sites received 1.0 ml sterile water instead of DHM3. The injection sites were along the mid-lateral aspect of each side of the swine and were 4-5 cm apart (6-8 injection sites per side). One animal was used for a dose experiment where DOX, 0.5 ml/site was injected along one side and 1.0 ml/site was injected along the contralateral side. Fifteen minutes later, DHM3 or water was injected into alternating sites as described above. A second animal received DOX, 0.75 ml/site along both sides. […]"}}}
{"compound": "CC1(CO)COC(=O)C(C)(C2(C)NC(C)(CO)COC2=O)N1", "note": "(stereo not shown) [DHM3, bi(3,5-dimethyl-5-hydroxymethyl-2-oxomorpholin-3-yl)]", "values": [{"measurement": "stability to air in water", "setting": "[1]", "result": "quickly gives rise to an absorption maximum at 310 nm, characteristic of the oxazinone"}, {"measurement": "tissue injury (histology)", "setting": "swine skin", "result": "did not cause any tissue injury except for mild upper dermis congestion"}, {"measurement": "tolerance of control i.d. injections", "setting": "swine skin", "result": "well tolerated"}, {"measurement": "ulcer formation", "setting": "swine skin", "result": "no ulcer formation occurred"}]}
